We go through 15 compounds from article PMC5983277 (Marine Drugs, 2018).

In data set [1] the test system is human epidermoid carcinoma cells (KB). Briefly: cells. The conditions noted are these: Homo sapiens, KB, 72 h, read-out: percentage of inhibition of cellular proliferation of KB cells. As for the experimental part: (§1) The human cell line KB originated from the National Cancer Institute (NCI) and was grown in Dulbecco’s Modified Eagle Medium (D-MEM) medium supplemented with 10% foetal calf serum, in the presence of penicillin, streptomycin, and fungizone in a 75 mL flask under 5% CO2. A total of 600 cells were plated in 96-well tissue culture plates in 200 µL of medium and treated 24 h later with 2 μL of stock solution of compounds dissolved in DMSO using a Biomek 3000 (Beckman-Coulter, Brea, CA, USA). Controls received the same volume of DMSO (1% final volume). After 72 h exposure, cell titer 96 Aqueous One solution (Promega, Madison, WI, USA) was added and incubated for 3 h at 37 °C: the absorbance was monitored at 490 nm, and results were expressed as the inhibition of cell proliferation calculated as the ratio [(1 − (OD490 treated/OD490 control)) × 100] in triplicate experiments.

The target of another data set is Insect recombinant AChE. On the set-up: method as in Sepcic et al. 2001 [33]; key to mode of AChE inhibition: NCI: non competitive inhibition; CI: competitive inhibition; ND: non described. The settings on record: ref Sepcic et al. 2001 [33], cited from earlier work.
The target of the next data set is Eel AChE. On the set-up: key to mode of AChE inhibition: NCI: non competitive inhibition; CI: competitive inhibition; ND: non described. The settings on record: cited from earlier work; for IC50: read-out: AChE inhibition IC50.
The subject of another data set is Human recombinant AchE. On the set-up: method as in Sirimangkalakitti et al. 2015 [32]; key to mode of AChE inhibition: NCI: non competitive inhibition; CI: competitive inhibition; ND: non described. The conditions noted are these: ref Sirimangkalakitti et al. 2015 [32], cited from earlier work; for IC50: read-out: AChE inhibition IC50.
Data set [2] deals with Acanthurus triostegus (reef fish). Briefly: Reef fish feeding behavior experiment (bites on coral rubble). In kind it is in vivo. The settings on record: for number of bites on coral pieces per recruit and per hour (in words): A. triostegus recruits (larvae undergoing metamorphosis), 1 μg/mL in tank, 72 h, p < 0.01. As for the experimental part: Manini (Acanthurus triostegus) were caught during new moon nights on the foreshore puddles at Tema’e public beach. Recruits (fish larvae undergoing metamorphosis) and juveniles (larvae after the recruits stage) were collected and immediately used for the experiments. Natural lagoon sea-water was used and UV-sterilized prior use. Three conditions were tested on three groups: control, solvent, 1 μg/mL sponge extract treatment, with 4 or 5 fishes in each 3 L tank. The fishes were exposed under semi-static system for 72 h, the experimental solutions were renewed every 24 h to maintain clean experimental conditions. The experiments were performed with fish recruits and juveniles. Rubbles were disposed in each aquarium 1 h/day during 3 days. Feeding behavior experiment consists in counting the overall number of bites on those rubbles in each aquarium. Six videos sequences (N = 6) of 5 or 10 min per aquarium and per day were analyzed. Results are expressed in number of bites per fish and per hour.
All the values of AChE activity are represented in a boxplot distribution, because of non-normality of variable distribution (N = 4 or 5). The significant differences between controls and treatments (p-value p < 0.05) were analyzed with non-parametric test of Wilcoxon Mann Whitney. In feeding deterrent assay, pairs significant differences between different conditions (p < 0.05) were tested with non-parametric Kruskal Wallis test. All statistical assays were executed using R software (R-3.2.0, The R Foundation for Statistical Computing, Vienna, Austria).

The nature of another data set: in vitro. The conditions noted are these: human. As for the experimental part: as §1
Data set [3] deals with T1, acetylcholinesterase (AChE) (Homo sapiens, UniProt P22303).
T1 construct: purchased Sigma-Aldrich
Briefly: Acetylcholinesterase inhibition assay (Ellman's colorimetric method) and kinetic study. The class given is biochemical. The protocol: The crude extract of the sponge and the purified psammaplysene D (1) were dissolved in DMSO at 10 mg/mL, stored at −20 °C and diluted subsequently 100 times in H2O prior testing. Determination of AChE-inhibitory activity was measured according the Ellman’s colorimetric method, in 96-well tissue culture plates. All reagents, buffers and salts were purchased from Sigma-Aldrich (Saint-Louis, MO, USA). Galantamine was used as a positive control for each analysis. Solvent controls received the same volume of water. After a 30 min incubation at 25 °C in the dark, absorbance was monitored at λ = 405 nm. Results were expressed as the percentage of enzyme inhibition calculated as the ratio: 100 × (ODcontrol − ODtreated)/(ODcontrol − ODblank), where the blanks are the wells without AChE. Serial dilutions of the compound or extract were prepared (100, 50, 25, 12.5, 6.25, 3.12, 1.56, and 0.78 μg/mL) and tested according to the same procedure using 10 μL of each solution. IC50 values were graphically determined by plotting the percentage of inhibition against the compound concentrations. Each assay was performed in triplicate and results are expressed as mean values ± S.D.
The inhibition mode of psammaplysene D on AChE was determined while measuring the enzyme activity in presence of an increasing concentration of ATCI (0.024, 0.049, 0.098, 0.19, 0.39, 0.78, 1.57, and 3.15 μM), in absence or presence of 2 μg/mL final concentration of purified psammaplysene D. The inhibition mode, Vmax, and KM values were determined by double-reciprocal Lineweaver and Burk plot analysis (1934) of the data obtained.

The subject of data set [4] is Poecilia reticulata (guppy). Kind of data set: Guppy chronic (sub-lethal) exposure, feeding on flakes. In kind it is in vivo. The conditions noted are these: guppies, sub-lethal dose 1 μg/mL purified compound, 24 h exposure (72 h experiment). The protocol:
(§2) The screening of our French Polynesian sponges extract library was performed on acetylcholinesterase inhibitor (AChE) in the aim to investigate a possible chemical defense of sessile organisms on the reef against fishes, their main predators. […] In order to try to evaluate the effect of psammaplysene D in the environment, it was further tested on fresh water fish (guppy, Poecilia reticulata) and reef fish (Acanthurus triostegus) feeding experiment using bathing with or without the bioactive compound. Guppies are fed with commercial flakes, but the wild reef fish feed on natural coral heads, and their appetite evaluated by counting the bites on the corals. Two experiments were run on guppies using Suberea ianthelliformis crude extract and purified psammaplysene D (1): an acute toxicity bioassay (100 μg/mL of crude extract or purified psammaplysene D (1), 1 h) and a chronic toxicity (5 μg/mL of crude extract or 1 μg/mL of purified psammalysene D (1), 72 h).
5 to 8 cm long guppies (Poecilia reticulata) were collected at night in a private fresh water pool at Papara (Tahiti, French Polynesia) and immediately acclimated at the laboratory temperature (25 °C). After acclimatization, fishes were parted in two 2 L tanks: one for the control group treated with solvent (N = 5). […]

A further data set deals with AChE. Briefly: AChE activity in brain and gill extracts of exposed guppies. The settings on record: guppies after 1 h exposure to 100 µg/mL, N = 5, p < 0.05. In kind it is in vivo.
The test system of data set [5] is Poecilia reticulata (guppy). Kind of data set: Guppy acute toxicity bioassay (bathing, 1 h). In kind it is in vivo. The settings on record: guppies. The protocol:
as §2
5 to 8 cm long guppies (Poecilia reticulata) were collected at night in a private fresh water pool at Papara (Tahiti, French Polynesia) and immediately acclimated at the laboratory temperature (25 °C). After acclimatization, fishes were parted in two 2 L tanks: one for the control group treated with solvent (N = 5). Another experiment was performed using a 1 h treatment with 100 μg/mL of crude extract of the sponge or purified psammaplysene D (1) to check their acute toxicity.

Like-named read-outs stand apart in the source and are kept apart here.

T1 sequence (P22303 32-614, species assumed): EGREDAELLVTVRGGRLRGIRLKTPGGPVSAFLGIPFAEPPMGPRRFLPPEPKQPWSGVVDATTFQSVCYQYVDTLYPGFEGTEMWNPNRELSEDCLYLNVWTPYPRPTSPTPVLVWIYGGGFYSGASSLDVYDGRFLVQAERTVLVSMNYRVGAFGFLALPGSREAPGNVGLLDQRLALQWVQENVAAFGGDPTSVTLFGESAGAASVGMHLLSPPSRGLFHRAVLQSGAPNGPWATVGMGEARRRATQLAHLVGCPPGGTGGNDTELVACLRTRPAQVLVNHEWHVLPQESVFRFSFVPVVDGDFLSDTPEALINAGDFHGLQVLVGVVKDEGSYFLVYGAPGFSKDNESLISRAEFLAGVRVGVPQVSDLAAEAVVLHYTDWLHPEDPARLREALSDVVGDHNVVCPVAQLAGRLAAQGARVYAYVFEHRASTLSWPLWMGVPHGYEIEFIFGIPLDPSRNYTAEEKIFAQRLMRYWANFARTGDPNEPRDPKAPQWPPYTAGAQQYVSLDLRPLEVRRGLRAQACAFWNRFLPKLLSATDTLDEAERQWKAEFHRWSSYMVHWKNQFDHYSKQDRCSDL

Regarding `CN(C)CCc1cc(Br)c(OCCCN(C)C(=O)C(Cc2cc(Br)c(O)c(Br)c2)N(C)C)c(Br)c1` (centres unmarked) [Anomoian C (6), O-demethyl anomoian B], in [1], the inhibition at 1 µM came to 15 ± 3% and the inhibition at 10 µM amounted to 28 ± 5%.
For the compound `Br.COc1c(Br)cc(C/C(=N\O)C(=O)NCCc2cc(Br)c(OCCCN)c(Br)c2)cc1Br` [Aplysamine-4], the inhibition constant Ki is 2 µM on Insect recombinant AChE (read-out: AChE inhibition KI) and 16 µM at Eel AChE (ref Sepcic et al. 2001 [33], read-out: AChE inhibition KI). Also, the “mode of AChE inhibition” value in the data set on Insect recombinant AChE and in the data set on Eel AChE (ref Sepcic et al. 2001 [33]) was “NCI” each time.
With Purealidine Q, in the data set with Eel AChE (ref Olatunji et al. 2014 [31]), the IC50 is 1.2 µM and the “mode of AChE inhibition” value is “NCI”.
On to `CN[C@@H](Cc1cc(Br)c(OC)c(Br)c1)C(=O)NCCc1cc(Br)c(OCCCN(C)C)c(Br)c1` [Isoanomoian A], for which, in the data set with Eel AChE (ref Olatunji et al. 2014 [31]), the IC50 was 70 µM and the “mode of AChE inhibition” value is “NCI”.
For Aplysanzine A, in the data set on Eel AChE (ref Olatunji et al. 2014 [31]), the IC50 is 104 µM and the “mode of AChE inhibition” value is “NCI”.
For `CN(C)CCc1cc(Br)c(OCCCN(C)C(=O)/C=C/c2cc(Br)c(O)c(Br)c2)c(Br)c1` [Psammaplysene F (2), psammaplysene F], in data set [1], the inhibition at 1 µM stood at 20 ± 0.2% and the inhibition at 10 µM worked out at 73 ± 2%.
In the case of `COC1=C(Br)[C@H](O)[C@@]2(C=C1Br)CC(C(=O)NCCCCCNC(=O)C1=NO[C@]3(C=C(Br)C(OC)=C(Br)[C@@H]3O)C1)=NO2` [Homoaerothionin], in the data set on Human recombinant AchE, the half-inhibitory concentration (IC50) was 4.5 µM and the “mode of AChE inhibition” value is recorded as “CI”.
For the compound `CN(C)CCc1cc(Br)c(O)c(Br)c1` [N,N-dimethyldibromotyramine (10), N,N-dimethyldibromotyramine], in [1], the inhibition at 1 µM came out at 89 ± 1% and the inhibition at 10 µM worked out at 100 ± 1%.
With `CN(C)CCCOc1c(Br)cc(/C=C/C(=O)N(C)CCCOc2c(Br)cc(CCN(C)C)cc2Br)cc1Br` [Psammaplysene D (1), psammaplysene D], the “behaviour of reef fish juveniles” value in data set [2] (A. triostegus juveniles) is on record as “did not seem to be impacted”. In addition, the “number of bites on coral pieces per recruit and per hour (in words)” value in data set [2] is “loss of appetite from the first day of experiment”; in [2] (listed as psammaplysene D (1)) it was “significantly and readily decreased the number of bites”. For the same compound, half-maximal inhibition in the data set “in vitro” (IC50 at 72 h) required 0.7 µM. For the same compound, the inhibition at 1 µM in data set [1] was 95 ± 0.5%. In addition, the inhibition at 10 µM in data set [1] turned out to be 100 ± 0.2%. This compound showed an IC50 in [3] of 1.3 µM. Also, the “mode of AChE inhibition” value in [3] (Lineweaver-Burk plot) was “mixed competitive/non-competitive inhibition”. Also, the maximal velocity (Vmax) in [3] (Lineweaver-Burk, with 2 μg/mL psammaplysene D, decreasing from 0.0036) worked out at 0.0007 µmol/min. Also, the “feeding behaviour towards food flakes” value in data set [4] is “loss of appetite from the first day of experiment”; in data set [4] (listed as psammalysene D (1)), “passivity of the fish towards the food flakes”. Moreover, the “AChE activity in gills (in words)” value with AChE is “mild but significant decrease”. For the same compound, the “behaviour during acute exposure” value in [5] (100 μg/mL, bathing) is “totally confused and had uncontrolled mobility”. Besides, the acute toxicity outcome in data set [5] (100 μg/mL, one hour bathing) is reported as “death”. Moreover, in data set [5] (acute exposure 100 μg/mL), the “time to onset of behavioural effects after addition to the tank” value is recorded as 20 min.
`COC1=C(Br)C(O)C2(C=C1Br)CC(C(=O)NCC(O)COc1c(Br)cc(C3CNC(=O)O3)cc1Br)=NO2` (centres unmarked) [Fistularin 1]: the IC50 in the data set with Human recombinant AchE was 47.5 µM.
As to `CNC(Cc1cc(Br)c(OCCCN(C)C)c(Br)c1)C(=O)N(C)CCCOc1c(Br)cc(CCN(C)C)cc1Br` (centres unmarked) [Anomoian E (8), anomoian E], in data set [1], the inhibition at 1 µM turned out to be 6 ± 2% and the inhibition at 10 µM was 82 ± 1%.
On to `CNC(Cc1cc(Br)c(O)c(Br)c1)C(=O)N(C)CCCOc1c(Br)cc(CCN(C)C)cc1Br` (centres unmarked) [Anomoian D (7), O-demethyl anomoian A], for which, in data set [1], the inhibition at 1 µM was found to be 17 ± 2% and the inhibition at 10 µM was 29 ± 2%.
The matching figures for `O=C(O)c1cc(O)c2c(O)ccc(O)c2n1` [5-hydroxy xanthenuric acid (11), 4,5,8-trihydroxyquinoline-2-carboxilic acid]: 6 ± 0.5% and 25 ± 1%.
On to `CN(C)CCc1cc(Br)c(OCCCN(C)C(=O)/C=C\c2cc(Br)c(O)c(Br)c2)c(Br)c1` [Psammaplysene G (3), psammaplysene G], for which, in data set [1], the inhibition at 1 µM came to 17 ± 1% and the inhibition at 10 µM is 75 ± 0.4%.
Turning to `CN(C)CCCOc1c(Br)cc(CC(C(=O)N(C)CCCOc2c(Br)cc(CCN(C)C)cc2Br)N(C)C)cc1Br` (centres unmarked) [Anomoian F (9), anomoian F], in [1], the inhibition at 1 µM amounted to 20 ± 0.6% and the inhibition at 10 µM came out at 100 ± 0.5%.
